The test system of this experiment is Saprolegnia parasitica. The experiment in a line: Antifungal effect at different concentrations by 24-well plate method (MIC). In kind it is cell-based. The note with it: for Antifungal effect: water mould Saprolegnia parasitica on GY agar. From the text: Water moulds were taken from the body surface of rainbow trout. The water moulds were isolated and subcultured using GY medium (broth) containing 10 g/L of glucose and 2.5 g/L of yeast extract and GY medium (agar) containing 10 g/L of glucose, 2.5 g/L of yeast extract and 7.5 g/L of agar. The pathogenic water moulds were isolated and identified as Saprolegnia parasitica (Gene Bank Data homology search result: 99%) through ITS-5.8S rDNA sequencing at the Korean Culture Center of Microorganisms (KCCM) of the Korean Federation of Culture Collections (KFCC). The natural product sweet flag extract was compared with malachite green. Antifungal effect and minimal inhibitory concentration (MIC) were tested by the 24-well plate method and the diffusion method.
GY agar was placed on a sterilized 24-well plate. […] Hyphae of Saprolegnia parasitica, which had been cultured in GY agar plate, taken with a 50 mL syringe were added to each plate and antifungal activity test was carried out for 72 hours. Photographs were taken every 24 hours.
GY agar was placed on a sterilized 24-well plate. After waiting until the medium was dry, each 100 μL of 20 ppm, 2 ppm and 0.2 ppm malachite green (MG) was added to the GY medium (control), in the same manner as in FIG. 1. Hyphae of Saprolegnia parasitica, which had been cultured in GY agar plate, taken with a 50 mL syringe were added to each plate and antifungal activity test was carried out for 72 hours. Photographs were taken every 24 hours.

As to `CN(C)c1ccc(C(=C2C=CC(=[N+](C)C)C=C2)c2ccccc2)cc1` [MG, malachite green], the Antifungal effect result runs as follows: (0.2 ppm) “+”; (2 ppm) “++”; (20 ppm) “+++”. Besides, the MIC (Saprolegnia parasitica, read-out: MIC (minimal inhibitory concentration)) stood at 2 µg/mL.

The record behind these values is patent publication US7807201B2, “Antifungal agent comprising natural plant extracts” (Binex Co., Ltd., priority 2007, dated 2010).
